Laboratory results as given in PubChem BioAssay AID2060912 (Molecular Pharmacology Branch, DTP, NCI, 2025).

System: HUVEC/MSC spheroids viability
Experiment: Human HUVEC/MSC cell line growth inhibition [KRAS2];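 as to viability, T/C: percent of DMSO vehicle control luminescence so 100% = untreated viability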
Conditions: for IC50: curve of first compound; for viability, T/C: stronger effect = lower value
In short: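 Stroma-only multicellular spheroids, formed from HUVEC and human MSCs at passages </=5, received RAS-pathway inhibitors with or without a second targeted drug. Dosing followed half-log dilutions from clinically achievable levels.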

[1] = second compound 0.0316 µM, first compound 0.0316 µM
[2] = second compound 0.0316 µM, first compound 0.1 µM
[3] = second compound 0.1 µM, first compound 0.0316 µM
[4] = second compound 0.1 µM, first compound 0.1 µM
[5] = second compound 0.316 µM, first compound 0.0316 µM
[6] = second compound 0.316 µM, first compound 0.1 µM
[7] = second compound 1 µM, first compound 0.0316 µM
[8] = second compound 1 µM, first compound 0.1 µM
[9] = second compound 3.16 µM, first compound 0.0316 µM
[10] = second compound 3.16 µM, first compound 0.1 µM
[11] = second compound 10 µM, first compound 0.0316 µM
[12] = second compound 10 µM, first compound 0.1 µM

## CC(C)n1nc(-c2ccc3oc(N)nc3c2)c2c(N)ncnc21 + CC1OCC2(CCN(c3cnc(Sc4ccnc(N)c4Cl)c(N)n3)CC2)C1N
Second compound 0.0316 µM
  IC50: 14.8 nM
Second compound 0.1 µM
  IC50: 8.3 nM
Second compound 0.316 µM
  IC50: 3.12 nM
Second compound 1 µM
  IC50: 2.42 nM
Second compound 3.16 µM
  IC50: 1.61 nM
Second compound 10 µM
  IC50: < 0.316 nM
Second compound 0.0316 µM, first compound 0.000316 µM
  viability, T/C: 108%
Second compound 0.0316 µM, first compound 0.001 µM
  viability, T/C: 95.2%
Second compound 0.0316 µM, first compound 0.00316 µM
  viability, T/C: 63.9%
Second compound 0.0316 µM, first compound 0.01 µM
  viability, T/C: 53.5%
[1]
  viability, T/C: 50.4%
[2]
  viability, T/C: 43.9%
Second compound 0.1 µM, first compound 0.000316 µM
  viability, T/C: 100%
Second compound 0.1 µM, first compound 0.001 µM
  viability, T/C: 93.8%
Second compound 0.1 µM, first compound 0.00316 µM
  viability, T/C: 63.3%
Second compound 0.1 µM, first compound 0.01 µM
  viability, T/C: 49.6%
[3]
  viability, T/C: 43.6%
[4]
  viability, T/C: 36.4%
Second compound 0.316 µM, first compound 0.000316 µM
  viability, T/C: 85%
Second compound 0.316 µM, first compound 0.001 µM
  viability, T/C: 81.3%
Second compound 0.316 µM, first compound 0.00316 µM
  viability, T/C: 49.2%
Second compound 0.316 µM, first compound 0.01 µM
  viability, T/C: 47.5%
[5]
  viability, T/C: 42.6%
[6]
  viability, T/C: 35.6%
Second compound 1 µM, first compound 0.000316 µM
  viability, T/C: 83.8%
Second compound 1 µM, first compound 0.001 µM
  viability, T/C: 71.2%
Second compound 1 µM, first compound 0.00316 µM
  viability, T/C: 43.4%
Second compound 1 µM, first compound 0.01 µM
  viability, T/C: 33.1%
[7]
  viability, T/C: 33.3%
[8]
  viability, T/C: 28.9%
Second compound 3.16 µM, first compound 0.000316 µM
  viability, T/C: 62.6%
Second compound 3.16 µM, first compound 0.001 µM
  viability, T/C: 60%
Second compound 3.16 µM, first compound 0.00316 µM
  viability, T/C: 36.5%
Second compound 3.16 µM, first compound 0.01 µM
  viability, T/C: 27.7%
[9]
  viability, T/C: 22%
[10]
  viability, T/C: 23.1%
Second compound 10 µM, first compound 0.000316 µM
  viability, T/C: 48.2%
Second compound 10 µM, first compound 0.001 µM
  viability, T/C: 41.8%
Second compound 10 µM, first compound 0.00316 µM
  viability, T/C: 22.3%
Second compound 10 µM, first compound 0.01 µM
  viability, T/C: 16.2%
[11]
  viability, T/C: 16.8%
[12]
  viability, T/C: 10.7%

## CC1(C)CCC(CN2CCN(c3ccc(C(=O)NS(=O)(=O)c4ccc(NCC5CCOCC5)c([N+](=O)[O-])c4)c(Oc4cnc5[nH]ccc5c4)c3)CC2)=C(c2ccc(Cl)cc2)C1 + CC1OCC2(CCN(c3cnc(Sc4ccnc(N)c4Cl)c(N)n3)CC2)C1N
Second compound 0.0316 µM
  IC50: 5150 nM
Second compound 0.1 µM
  IC50: 4690 nM
Second compound 0.316 µM
  IC50: 4770 nM
Second compound 1 µM
  IC50: 4470 nM
Second compound 3.16 µM
  IC50: 3510 nM
Second compound 10 µM
  IC50: 2230 nM
[1]
  viability, T/C: 99.2%
[2]
  viability, T/C: 116%
Second compound 0.0316 µM, first compound 0.316 µM
  viability, T/C: 109%
Second compound 0.0316 µM, first compound 1 µM
  viability, T/C: 108%
Second compound 0.0316 µM, first compound 3.16 µM
  viability, T/C: 83.8%
Second compound 0.0316 µM, first compound 10 µM
  viability, T/C: 4.11%
[3]
  viability, T/C: 116%
[4]
  viability, T/C: 110%
Second compound 0.1 µM, first compound 0.316 µM
  viability, T/C: 102%
Second compound 0.1 µM, first compound 1 µM
  viability, T/C: 94.9%
Second compound 0.1 µM, first compound 3.16 µM
  viability, T/C: 78.6%
Second compound 0.1 µM, first compound 10 µM
  viability, T/C: 1.56%
[5]
  viability, T/C: 91.5%
[6]
  viability, T/C: 124%
Second compound 0.316 µM, first compound 0.316 µM
  viability, T/C: 122%
Second compound 0.316 µM, first compound 1 µM
  viability, T/C: 110%
Second compound 0.316 µM, first compound 3.16 µM
  viability, T/C: 75.6%
Second compound 0.316 µM, first compound 10 µM
  viability, T/C: 3.8%
[7]
  viability, T/C: 91%
[8]
  viability, T/C: 95%
Second compound 1 µM, first compound 0.316 µM
  viability, T/C: 102%
Second compound 1 µM, first compound 1 µM
  viability, T/C: 92.3%
Second compound 1 µM, first compound 3.16 µM
  viability, T/C: 71.6%
Second compound 1 µM, first compound 10 µM
  viability, T/C: 0.34%
[9]
  viability, T/C: 93.2%
[10]
  viability, T/C: 91.9%
Second compound 3.16 µM, first compound 0.316 µM
  viability, T/C: 93%
Second compound 3.16 µM, first compound 1 µM
  viability, T/C: 66.1%
Second compound 3.16 µM, first compound 3.16 µM
  viability, T/C: 61.3%
Second compound 3.16 µM, first compound 10 µM
  viability, T/C: 0.92%
[11]
  viability, T/C: 76%
[12]
  viability, T/C: 76.2%
Second compound 10 µM, first compound 0.316 µM
  viability, T/C: 85.1%
Second compound 10 µM, first compound 1 µM
  viability, T/C: 69.8%
Second compound 10 µM, first compound 3.16 µM
  viability, T/C: 40.9%
Second compound 10 µM, first compound 10 µM
  viability, T/C: 0.29%
